This is an account of results in paper PMC8580050, “Improvement of the antimicrobial potency, pharmacokinetic and pharmacodynamic properties of albicidin by incorporation of nitrogen atoms” (Chemical Science, 2021).

≈ marks a conversion by molar mass, not a printed value. Read-outs that look alike come from different tables or passages of the source. Some results are limits rather than exact numbers.

One experiment deals with E. coli DSM 1116. Briefly: MIC determination (broth microdilution). Conditions: Escherichia coli, DSM1116. Format: cell-based, Escherichia coli. The protocol: (§1) 1.1.1 In vitro experiments
(§2) Determination of Minimal inhibitory concentrations (MIC)
(§3) Approved Standard M07-A9.1
(§4) CFU mL-1. […] Albicidin and […]
(§5) and serially diluted in DMSO (100%). […]
(§6) in 0.1 N HCL, respectively.
(§7) One row of each well plate served as a […]
(§8) sterility control (only MHB II-media). […]
(§9) adding 5 µL DMSO to several wells. […]
(§10) for growth inhibition by naked eye.
(§11) Microorganisms and Cell Cultures (DSMZ): […]

The next experiment has as its system S. Typhimurium TA100. Put plainly: MIC determination (broth microdilution). The format is cell-based, Salmonella typhimurium. Conditions: Salmonella enterica; S. Typhimurium TA100; read-out: MIC. How it is done: as §1, §2, §3, §4, §5, §6, §7, §8, §9, §10, §11
In another experiment the test system is B. subtilis DSM 10. Briefly: MIC determination (broth microdilution). The format is cell-based. Conditions: Bacillus subtilis, DSM10; B. subtilis DSM 10; read-out: MIC. How it is done:
as §1, §2, §3, §4, §5, §6, §7, §8, §9, §10, §11

The test system of another experiment is E. coli BW25113. Briefly: MIC determination (broth microdilution). The format is cell-based. Conditions: Escherichia coli. The protocol: as §1, §2, §3, §4, §5, §6, §7, §8, §9, §10, §11
For the next experiment, the system named is M. luteus DSM1790. Put plainly: MIC determination (broth microdilution). Format: cell-based, Micrococcus luteus. Conditions: Micrococcus luteus; M. luteus DSM1790; read-out: MIC. How it is done: as §1, §2, §3, §4, §5, §6, §7, §8, §9, §10, §11
The next experiment deals with M. phlei DSM 750. Briefly: MIC determination (broth microdilution). Format: cell-based, Mycobacterium phlei. Conditions: Mycolicibacterium phlei, DSM750; M. phlei DSM 750; read-out: MIC. The protocol:
as §1, §2, §3, §4, §5, §6, §7, §8, §9, §10

Experiment [1] deals with E. coli DSM 1116 + 50% Human Serum. Put plainly: MIC determination in presence of 50% human serum. Conditions: Escherichia coli, DSM1116; E. coli DSM 1116 + 50% Human Serum; read-out: MIC. Format: cell-based.
Description: This investigation was completed by assessment of the antibacterial activity in presence of human plasma (50%) (Table 1), since high plasma protein binding can severely impair antibacterial activity and thus efficacy.
as §1, §2, §3, §4, §5, §6, §7, §8, §9, §10, §11

For the next experiment, the target named is T1, E. coli DNA gyrase (Escherichia coli, UniProt P0AES4+P0AES6).
T1 construct: purchased inspiralis Limited, Norwich, UK
T1 sequence (P0AES4 whole entry, one chain of several): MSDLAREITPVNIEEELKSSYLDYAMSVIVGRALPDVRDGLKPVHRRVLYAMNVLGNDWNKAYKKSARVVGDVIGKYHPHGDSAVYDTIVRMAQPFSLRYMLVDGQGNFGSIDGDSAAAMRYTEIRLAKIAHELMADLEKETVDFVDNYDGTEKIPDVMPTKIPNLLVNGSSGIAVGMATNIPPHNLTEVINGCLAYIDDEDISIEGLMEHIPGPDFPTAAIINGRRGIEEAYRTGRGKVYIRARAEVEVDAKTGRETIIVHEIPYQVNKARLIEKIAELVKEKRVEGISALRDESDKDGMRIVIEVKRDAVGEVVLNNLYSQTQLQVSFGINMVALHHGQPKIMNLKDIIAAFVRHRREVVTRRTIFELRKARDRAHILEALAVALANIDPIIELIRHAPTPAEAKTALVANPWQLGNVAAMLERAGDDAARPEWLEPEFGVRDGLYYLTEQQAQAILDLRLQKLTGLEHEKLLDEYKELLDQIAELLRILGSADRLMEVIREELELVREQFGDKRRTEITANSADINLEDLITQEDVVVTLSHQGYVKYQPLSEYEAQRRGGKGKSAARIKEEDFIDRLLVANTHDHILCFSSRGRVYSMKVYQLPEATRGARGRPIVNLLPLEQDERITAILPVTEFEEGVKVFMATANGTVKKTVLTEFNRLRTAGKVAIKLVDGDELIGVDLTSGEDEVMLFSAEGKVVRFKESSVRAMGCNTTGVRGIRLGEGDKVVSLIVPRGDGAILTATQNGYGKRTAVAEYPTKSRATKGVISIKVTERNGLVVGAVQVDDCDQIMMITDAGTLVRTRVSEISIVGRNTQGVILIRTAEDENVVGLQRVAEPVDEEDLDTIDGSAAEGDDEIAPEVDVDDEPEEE
Briefly: E. coli gyrase supercoiling inhibition assay. Format: biochemical. More on the design: key: ↑: for stronger inhibition; ≈: for equal inhibition; ↓: for diminished inhibition compared to albicidin 1. Conditions: constant concentration of 45 nM, compared to albicidin 1. The protocol:
Escherichia coli Gyrase Supercoiling Inhibition Assay
loaded on an agarose gel.
2-15. […] Addition of DNA
All derivatives were tested at a concentration of […]

For the next experiment, the target named is DNA gyrase. Conditions: read-out: half maximum inhibitory concentration (IC50); cited from earlier work.
The mark [2] stands for this setting: E. coli DSM 1116, read-out: MIC.

As for `COc1c(NC(=O)c2ccc(NC(=O)[C@H](Cc3c[nH]nn3)NC(=O)c3ccc(NC(=O)/C(C)=C/c4ccc(O)cc4)cc3)cc2)ccc(C(=O)Nc2ccccc2)c1O` [Compound 15], the MIC amounted to 1 µg/mL (≈ 1.26 µM) in the experiment with E. coli DSM 1116 (setting [2]); 1 µg/mL (≈ 1.26 µM) with S. Typhimurium TA100; 2 µg/mL (≈ 2.52 µM) in the experiment on B. subtilis DSM 10; 0.5 µg/mL (≈ 0.629 µM) with E. coli BW25113; 1 µg/mL (≈ 1.26 µM) in the experiment on M. luteus DSM1790; 2 µg/mL (≈ 2.52 µM) with M. phlei DSM 750. The MIC in experiment [1] was ≥ 8 µg/mL. The “E. coli gyrase inhibition” value at E. coli DNA gyrase is recorded as “≈”.

For the compound `COc1c(NC(=O)c2ccc(NC(=O)c3ccc(NC(=O)[C@H](Cc4c[nH]nn4)NC(=O)c4ccc(NC(=O)/C(C)=C/c5ccccn5)cc4)cc3)c(OC)c2O)ccc(C(=O)O)c1O` [Compound 3], the MIC with E. coli DSM 1116 (setting [2]) was found to be 0.25 µg/mL (≈ 0.287 µM); in the experiment on S. Typhimurium TA100 it was 0.125 µg/mL (≈ 0.144 µM); with B. subtilis DSM 10, 4 µg/mL (≈ 4.6 µM); in the experiment with E. coli BW25113, 0.5 µg/mL (≈ 0.575 µM); in the experiment on M. luteus DSM1790, 32 µg/mL (≈ 36.8 µM); in the experiment with M. phlei DSM 750, 64 µg/mL (≈ 73.6 µM). In addition, the MIC in experiment [1] was 8 µg/mL. The “E. coli gyrase inhibition” value on E. coli DNA gyrase is recorded as “↓”.

`COc1c(NC(=O)c2ccc(NC(=O)c3ccc(NC(=O)[C@H](Cc4c[nH]nn4)NC(=O)c4ccc(NC(=O)/C(C)=C/c5ccc(O)cc5)nc4)cc3)c(OC)c2O)ccc(C(=O)O)c1O` [Compound 6]: the MIC was determined as 0.016 µg/mL (≈ 0.0181 µM) in the experiment with E. coli DSM 1116 (setting [2]); 0.016 µg/mL (≈ 0.0181 µM) in the experiment with S. Typhimurium TA100; 0.5 µg/mL (≈ 0.564 µM) with B. subtilis DSM 10; 0.063 µg/mL (≈ 0.0711 µM) with E. coli BW25113; 4 µg/mL (≈ 4.52 µM) in the experiment on M. luteus DSM1790; 4 µg/mL (≈ 4.52 µM) in the experiment on M. phlei DSM 750. Also, the MIC in experiment [1] was determined as 1 µg/mL. In addition, the “E. coli gyrase inhibition” value at E. coli DNA gyrase is recorded as “↓”.

Regarding `COc1c(NC(=O)c2ccc(NC(=O)c3ccc(NC(=O)[C@H](Cc4c[nH]nn4)NC(=O)c4ccc(NC(=O)/C(C)=C/c5ccc(O)cc5)cn4)cc3)c(OC)c2O)ccc(C(=O)O)c1O` [Compound 5], the minimal inhibitory concentration (MIC) in the experiment on E. coli DSM 1116 (setting [2]) worked out at 0.031 µg/mL (≈ 0.035 µM); with S. Typhimurium TA100, 0.031 µg/mL (≈ 0.035 µM); with B. subtilis DSM 10, 0.25 µg/mL (≈ 0.282 µM); against E. coli BW25113 it was 0.031 µg/mL (≈ 0.035 µM); in the experiment on M. luteus DSM1790 it was 0.5 µg/mL (≈ 0.564 µM); with M. phlei DSM 750 it was 4 µg/mL (≈ 4.52 µM). Also, the MIC in experiment [1] stood at 2 µg/mL. Also, the “E. coli gyrase inhibition” value at E. coli DNA gyrase is given as “↑”.

On to `COc1c(NC(=O)c2ccc(NC(=O)c3ccc(NC(=O)[C@H](Cc4c[nH]nn4)NC(=O)c4ccc(NC(=O)/C(C)=C/c5ccc(O)cc5)cc4)cc3)cc2)ccc(C(=O)O)c1O` [Compound 11, reference compound], for which the MIC with E. coli DSM 1116 (setting [2]) came out at 0.063 µg/mL (≈ 0.0751 µM); with S. Typhimurium TA100, 0.063 µg/mL (≈ 0.0751 µM); with B. subtilis DSM 10, 4 µg/mL (≈ 4.77 µM); in the experiment on E. coli BW25113 it was 0.031 µg/mL (≈ 0.037 µM); in the experiment on M. luteus DSM1790, 8 µg/mL (≈ 9.54 µM); in the experiment on M. phlei DSM 750, 4 µg/mL (≈ 4.77 µM). In addition, the minimum inhibitory concentration (MIC) in [1] worked out at 4 µg/mL. The “E. coli gyrase inhibition” value on E. coli DNA gyrase was “≈”.

Take `COc1c(NC(=O)c2ccc(NC(=O)c3ccc(NC(=O)[C@H](Cc4c[nH]nn4)NC(=O)c4ccc(NC(=O)/C(C)=C/c5cccnc5)cc4)cc3)c(OC)c2O)ccc(C(=O)O)c1O` [Compound 4]: the MIC against E. coli DSM 1116 was 0.125 µg/mL (≈ 0.144 µM); in the experiment on S. Typhimurium TA100, 0.125 µg/mL (≈ 0.144 µM); in the experiment on B. subtilis DSM 10 it was 2 µg/mL (≈ 2.3 µM); against E. coli BW25113, 0.5 µg/mL (≈ 0.575 µM); in the experiment on M. luteus DSM1790 it was 32 µg/mL (≈ 36.8 µM); with M. phlei DSM 750 it was 32 µg/mL (≈ 36.8 µM). Further, the minimal inhibitory concentration (MIC) in [1] came out at 8 µg/mL. The “E. coli gyrase inhibition” value at E. coli DNA gyrase was “↓”.

For the compound cystobactamid, the IC50 on DNA gyrase is 80 nM.
